{
  "source": "patent US12643871B2",
  "about": "“Aryl formamide compound containing chiral sulfur oxide or salt thereof, preparation method, herbicidal composition and use thereof” (Qingdao Kingagroot Chemical Compound Co., Ltd., priority 2019, dated 2026)",
  "assay_in_all_cases": "Weeding effect in post-emergence stage",
  "type_in_all_cases": "in vivo",
  "settings_in_all_cases": "250 g/ha; 2 leaf stage; 15 days after application; fresh weight control rate",
  "key": {"Digitaria sanguinalis": {"tested_on": "Digitaria sanguinalis", "in_short": "(§1)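 Reported levels reflect fresh weight growth control rate banded 0 (<5%) through 5 (>85%), averaged over three repetitions. Treatment: foliar spray of 2-leaf-stage greenhouse plants at 15 to 500 g/ha, with 1.5 liter/ha methyl oleate synergist; assessment 15 days after application.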"}, "Echinochloa crusgali": {"tested_on": "Echinochloa crusgali", "in_short": "as §1"}, "Amaranthus retroflexus": {"tested_on": "Amaranthus retroflexus", "in_short": "as §1"}, "Setaria viridis": {"tested_on": "Setaria viridis", "in_short": "as §1"}, "Abutilon theophrasti": {"tested_on": "Abutilon theophrasti", "in_short": "as §1"}},
  "data": [
    {"compound": "COc1c(C(=O)Nc2nnc(C)o2)ccc(C(F)(F)F)c1[S@+]([O-])CCC(F)(F)F", "note": "[Compound 325]", "values": [
      {"measurement": "weeding effect in post-emergence stage, activity level (growth control rate), Digitaria sanguinalis", "setting": "Digitaria sanguinalis", "value": "5 (Level 5: growth control rate is above 85%)"},
      {"measurement": "weeding effect in post-emergence stage, activity level (growth control rate), Echinochloa crusgali", "setting": "Echinochloa crusgali", "value": "5 (Level 5: growth control rate is above 85%)"},
      {"measurement": "weeding effect in post-emergence stage, activity level (growth control rate), Amaranthus retroflexus", "setting": "Amaranthus retroflexus", "value": "5 (Level 5: growth control rate is above 85%)"},
      {"measurement": "weeding effect in post-emergence stage, activity level (growth control rate), Setaria viridis", "setting": "Setaria viridis", "value": "5 (Level 5: growth control rate is above 85%)"},
      {"measurement": "weeding effect in post-emergence stage, activity level (growth control rate), Abutilon theophrasti", "setting": "Abutilon theophrasti", "value": "5 (Level 5: growth control rate is above 85%)"}
    ]},
    {"compound": "COc1c(C(=O)Nc2nnc(C)o2)ccc(C(F)(F)F)c1[S@+]([O-])CCCC(F)(F)F", "note": "[Compound 326]", "values": [
      {"measurement": "weeding effect in post-emergence stage, activity level (growth control rate), Digitaria sanguinalis", "setting": "Digitaria sanguinalis", "value": "5 (Level 5: growth control rate is above 85%)"},
      {"measurement": "weeding effect in post-emergence stage, activity level (growth control rate), Echinochloa crusgali", "setting": "Echinochloa crusgali", "value": "5 (Level 5: growth control rate is above 85%)"},
      {"measurement": "weeding effect in post-emergence stage, activity level (growth control rate), Amaranthus retroflexus", "setting": "Amaranthus retroflexus", "value": "5 (Level 5: growth control rate is above 85%)"},
      {"measurement": "weeding effect in post-emergence stage, activity level (growth control rate), Setaria viridis", "setting": "Setaria viridis", "value": "5 (Level 5: growth control rate is above 85%)"},
      {"measurement": "weeding effect in post-emergence stage, activity level (growth control rate), Abutilon theophrasti", "setting": "Abutilon theophrasti", "value": "5 (Level 5: growth control rate is above 85%)"}
    ]},
    {"compound": "COc1c(C(=O)Nc2nnc(C)o2)ccc(C(F)(F)F)c1[S@@+]([O-])C(F)(F)C(F)(F)F", "note": "[Compound 327]", "values": [
      {"measurement": "weeding effect in post-emergence stage, activity level (growth control rate), Digitaria sanguinalis", "setting": "Digitaria sanguinalis", "value": "5 (Level 5: growth control rate is above 85%)"},
      {"measurement": "weeding effect in post-emergence stage, activity level (growth control rate), Echinochloa crusgali", "setting": "Echinochloa crusgali", "value": "5 (Level 5: growth control rate is above 85%)"},
      {"measurement": "weeding effect in post-emergence stage, activity level (growth control rate), Amaranthus retroflexus", "setting": "Amaranthus retroflexus", "value": "5 (Level 5: growth control rate is above 85%)"},
      {"measurement": "weeding effect in post-emergence stage, activity level (growth control rate), Setaria viridis", "setting": "Setaria viridis", "value": "5 (Level 5: growth control rate is above 85%)"},
      {"measurement": "weeding effect in post-emergence stage, activity level (growth control rate), Abutilon theophrasti", "setting": "Abutilon theophrasti", "value": "5 (Level 5: growth control rate is above 85%)"}
    ]},
    {"compound": "COc1c(C(=O)Nc2nnc(C)o2)ccc(C(F)(F)F)c1[S@@+]([O-])C(F)(F)C(F)(F)C(F)(F)F", "note": "[Compound 328]", "values": [
      {"measurement": "weeding effect in post-emergence stage, activity level (growth control rate), Digitaria sanguinalis", "setting": "Digitaria sanguinalis", "value": "5 (Level 5: growth control rate is above 85%)"},
      {"measurement": "weeding effect in post-emergence stage, activity level (growth control rate), Echinochloa crusgali", "setting": "Echinochloa crusgali", "value": "5 (Level 5: growth control rate is above 85%)"},
      {"measurement": "weeding effect in post-emergence stage, activity level (growth control rate), Amaranthus retroflexus", "setting": "Amaranthus retroflexus", "value": "5 (Level 5: growth control rate is above 85%)"},
      {"measurement": "weeding effect in post-emergence stage, activity level (growth control rate), Setaria viridis", "setting": "Setaria viridis", "value": "5 (Level 5: growth control rate is above 85%)"},
      {"measurement": "weeding effect in post-emergence stage, activity level (growth control rate), Abutilon theophrasti", "setting": "Abutilon theophrasti", "value": "5 (Level 5: growth control rate is above 85%)"}
    ]},
    {"compound": "COc1c(C(=O)Nc2nnc(C)o2)ccc(C(F)(F)F)c1[S@+]([O-])CCC(F)(F)C(F)(F)F", "note": "[Compound 329]", "values": [
      {"measurement": "weeding effect in post-emergence stage, activity level (growth control rate), Digitaria sanguinalis", "setting": "Digitaria sanguinalis", "value": "5 (Level 5: growth control rate is above 85%)"},
      {"measurement": "weeding effect in post-emergence stage, activity level (growth control rate), Echinochloa crusgali", "setting": "Echinochloa crusgali", "value": "5 (Level 5: growth control rate is above 85%)"},
      {"measurement": "weeding effect in post-emergence stage, activity level (growth control rate), Amaranthus retroflexus", "setting": "Amaranthus retroflexus", "value": "5 (Level 5: growth control rate is above 85%)"},
      {"measurement": "weeding effect in post-emergence stage, activity level (growth control rate), Setaria viridis", "setting": "Setaria viridis", "value": "5 (Level 5: growth control rate is above 85%)"},
      {"measurement": "weeding effect in post-emergence stage, activity level (growth control rate), Abutilon theophrasti", "setting": "Abutilon theophrasti", "value": "5 (Level 5: growth control rate is above 85%)"}
    ]},
    {"compound": "COc1c(C(=O)Nc2nnc(C)o2)ccc(C(F)(F)F)c1[S@@+]([O-])C(F)(C(F)(F)F)C(F)(F)F", "note": "[Compound 330]", "values": [
      {"measurement": "weeding effect in post-emergence stage, activity level (growth control rate), Digitaria sanguinalis", "setting": "Digitaria sanguinalis", "value": "5 (Level 5: growth control rate is above 85%)"},
      {"measurement": "weeding effect in post-emergence stage, activity level (growth control rate), Echinochloa crusgali", "setting": "Echinochloa crusgali", "value": "5 (Level 5: growth control rate is above 85%)"},
      {"measurement": "weeding effect in post-emergence stage, activity level (growth control rate), Amaranthus retroflexus", "setting": "Amaranthus retroflexus", "value": "5 (Level 5: growth control rate is above 85%)"},
      {"measurement": "weeding effect in post-emergence stage, activity level (growth control rate), Setaria viridis", "setting": "Setaria viridis", "value": "5 (Level 5: growth control rate is above 85%)"},
      {"measurement": "weeding effect in post-emergence stage, activity level (growth control rate), Abutilon theophrasti", "setting": "Abutilon theophrasti", "value": "5 (Level 5: growth control rate is above 85%)"}
    ]}
  ]
}
